Laboratory results from PubChem BioAssay AID328 (DTP/NCI, 2004).
“And” between values parts separate entries of the source, which are not always exact repeats. Identical values can stand only once. Toxic doses and inconclusive results are not listed. Residues, ends and D or L forms follow the SMILES beside them. *: point of attachment. Cbz = O=C(OCc1ccccc1)*; OtBu = CC(C)(C)O*

System: BDF1 mice, P388 leukemia ip, median survival T/C
Assay: NCI In Vivo Anticancer Drug Screen. Data for tumor model P388 Leukemia (intraperitoneal) in B6D2F1 (BDF1) mice
Details: endpoint: median survival time, higher = longer survival
Procedure, shortened: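 Steps: implant the tumour, treat one group with compound and another with vehicle, record survival, then divide treated by control.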

[1] = dose: 25.0 mg/kg/injection, schedule: Q01DX009 (ip), vehicle: Klucel (hydroxypropylcellulose) (HPC)
[2] = dose: 50.0 mg/kg/injection, schedule: Q01DX009 (ip), vehicle: Klucel (hydroxypropylcellulose) (HPC)
[3] = dose: 100.0 mg/kg/injection, schedule: Q01DX009 (ip), vehicle: Klucel (hydroxypropylcellulose) (HPC)
[4] = dose: 25.0 mg/kg/injection, schedule: Q01DX009 (ip), vehicle: saline with Tween-80
[5] = dose: 100.0 mg/kg/injection, schedule: Q01DX009 (ip), vehicle: saline with Tween-80
[6] = dose: 75.0 mg/kg/injection, schedule: Q04DX003 (ip), vehicle: Klucel (hydroxypropylcellulose) (HPC)
[7] = dose: 12.5 mg/kg/injection, schedule: Q01DX009 (ip), vehicle: saline with Tween-80
[8] = dose: 50.0 mg/kg/injection, schedule: Q01DX009 (ip), vehicle: saline with Tween-80
[9] = dose: 100.0 mg/kg/injection, schedule: Q04DX003 (ip), vehicle: Klucel (hydroxypropylcellulose) (HPC)
[10] = dose: 200.0 mg/kg/injection, schedule: Q04DX003 (ip), vehicle: Klucel (hydroxypropylcellulose) (HPC)
[11] = dose: 400.0 mg/kg/injection, schedule: Q04DX003 (ip), vehicle: Klucel (hydroxypropylcellulose) (HPC)
[12] = dose: 100.0 mg/kg/injection, schedule: Q04DX003 (ip), vehicle: saline
[13] = dose: 200.0 mg/kg/injection, schedule: Q04DX003 (ip), vehicle: saline
[14] = dose: 200.0 mg/kg/injection, schedule: Q01DX009 (ip), vehicle: Klucel (hydroxypropylcellulose) (HPC)
[15] = dose: 400.0 mg/kg/injection, schedule: Q01DX009 (ip), vehicle: Klucel (hydroxypropylcellulose) (HPC)
[16] = dose: 200.0 mg/kg/injection, schedule: Q01DX009 (ip), vehicle: saline with Tween-80
[17] = dose: 400.0 mg/kg/injection, schedule: Q01DX009 (ip), vehicle: saline with Tween-80
[18] = dose: 50.0 mg/kg/injection, schedule: Q01DX009 (ip), vehicle: saline
[19] = dose: 100.0 mg/kg/injection, schedule: Q01DX009 (ip), vehicle: saline

Compound: COc1cc2oc(-c3ccc(O)cc3O)c(CC=C(C)C)c(=O)c2c(O)c1/C=C/C(C)C
- T/C (dose: 4.1 mg/kg/injection, schedule: Q01DX009 (ip), vehicle: Klucel (hydroxypropylcellulose) (HPC)): 115 % of control
- T/C (dose: 6.25 mg/kg/injection, schedule: Q01DX009 (ip), vehicle: Klucel (hydroxypropylcellulose) (HPC)): 106 % of control
- T/C (dose: 9.3 mg/kg/injection, schedule: Q01DX009 (ip), vehicle: Klucel (hydroxypropylcellulose) (HPC)): 110 % of control
- T/C (dose: 12.5 mg/kg/injection, schedule: Q01DX009 (ip), vehicle: Klucel (hydroxypropylcellulose) (HPC)): 116 % of control
- T/C [1]: 98 % of control
- T/C [2]: 91 % of control
- T/C [3]: 94 % of control

Compound: Cc1ccc2c(c1)N=C(Nc1ccccc1)N=S2(C)=O (stereo not given)
- T/C [4]: 123 % of control
- T/C [5]: 160 % of control

Compound: NN(C(=O)c1ccccc1)c1ccccc1
- T/C (dose: 12.5 mg/kg/injection, schedule: Q04DX003 (ip), vehicle: Klucel (hydroxypropylcellulose) (HPC)): 100 % of control
- T/C [1]: 110 % of control
- T/C (dose: 25.0 mg/kg/injection, schedule: Q04DX003 (ip), vehicle: Klucel (hydroxypropylcellulose) (HPC)): 100 % of control
- T/C [2]: 100 % of control
- T/C (dose: 50.0 mg/kg/injection, schedule: Q04DX003 (ip), vehicle: Klucel (hydroxypropylcellulose) (HPC)): 104 % of control
- T/C [6]: 104 % of control
- T/C (dose: 115.0 mg/kg/injection, schedule: Q04DX003 (ip), vehicle: Klucel (hydroxypropylcellulose) (HPC)): 104 % of control
- T/C (dose: 170.0 mg/kg/injection, schedule: Q04DX003 (ip), vehicle: Klucel (hydroxypropylcellulose) (HPC)): 109 % of control
- T/C (dose: 255.0 mg/kg/injection, schedule: Q04DX003 (ip), vehicle: Klucel (hydroxypropylcellulose) (HPC)): 105 % of control
- T/C (dose: 385.0 mg/kg/injection, schedule: Q04DX003 (ip), vehicle: Klucel (hydroxypropylcellulose) (HPC)): 110 % of control

Compound: CCOC(=O)c1ccc(OP(=O)(N(C)C)N(C)C)cc1
- T/C [7]: 101 % of control
- T/C [4]: 110 % of control
- T/C [8]: 100 % of control and 119 % of control

Compound: CCCCCCCCCCCC[N+](C)(C)CCCCCC[N+](C)(C)CCCCCCCCCCCC
- T/C (dose: 3.13 mg/kg/injection, schedule: Q01DX009 (ip), vehicle: saline): 113 % of control
- T/C (dose: 6.25 mg/kg/injection, schedule: Q01DX009 (ip), vehicle: saline): 116 % of control
- T/C (dose: 12.5 mg/kg/injection, schedule: Q01DX009 (ip), vehicle: saline): 94 % of control

Compound: c1ccc2c(c1)C1c3ccccc3C2C2COCC12 (stereo not given)
- T/C [1]: 105 % of control
- T/C [2]: 110 % of control
- T/C [6]: 108 % of control
- T/C [3]: 100 % of control
- T/C (dose: 150.0 mg/kg/injection, schedule: Q04DX003 (ip), vehicle: Klucel (hydroxypropylcellulose) (HPC)): 104 % of control
- T/C (dose: 300.0 mg/kg/injection, schedule: Q04DX003 (ip), vehicle: Klucel (hydroxypropylcellulose) (HPC)): 86 % of control

Compound: O=C1CN(Cc2ccc(Cl)cc2)CC(=O)N2CCCN12
- T/C (dose: 50.0 mg/kg/injection, schedule: Q01DX005 (ip), vehicle: saline with Tween-80): 92 % of control

Compound: S=c1nc[nH]c2ccccc12
- T/C [9]: 109 % of control
- T/C [10]: 122 % of control
- T/C [11]: 109 % of control

Compound: CC1(C)C/C(=C\c2ccccc2)C(=O)c2ccccc21
- T/C (dose: 25.0 mg/kg/injection, schedule: Q01DX009 (ip), vehicle: water): 106 % of control
- T/C (dose: 50.0 mg/kg/injection, schedule: Q01DX009 (ip), vehicle: water): 95 % of control
- T/C (dose: 100.0 mg/kg/injection, schedule: Q01DX009 (ip), vehicle: water): 106 % of control
- T/C (dose: 200.0 mg/kg/injection, schedule: Q01DX009 (ip), vehicle: water): 88 % of control
- T/C (dose: 400.0 mg/kg/injection, schedule: Q01DX009 (ip), vehicle: water): 100 % of control

Compound: CCC1CN2CCc3cc(OC)c(OC)cc3C2CC1C#N (stereo not given)
- T/C [7]: 89 % of control
- T/C [4]: 89 % of control
- T/C [8]: 86 % of control

Compound: NCCCCS(=O)(=O)Nc1ccc(Nc2c3ccccc3nc3cc([N+](=O)[O-])ccc23)cc1
- T/C (dose: 2.93 mg/kg/injection, schedule: Q04DX003 (ip), vehicle: saline): 122 % of control
- T/C (dose: 33.0 mg/kg/injection, schedule: Q04DX003 (ip), vehicle: saline): 154 % of control
- T/C (dose: 50.0 mg/kg/injection, schedule: Q04DX003 (ip), vehicle: saline): 154 % of control
- T/C (dose: 75.0 mg/kg/injection, schedule: Q04DX003 (ip), vehicle: saline): 172 % of control
- T/C [12]: 161 % of control
- T/C [13]: 161 % of control

Compound: Nc1ccccc1SC1CC(=O)N(c2cccc3ccccc23)C1=O (stereo not given)
- T/C [3]: 118 % of control
- T/C [9]: 104 % of control
- T/C [14]: 118 % of control
- T/C [10]: 100 % of control
- T/C [15]: 100 % of control
- T/C [11]: 90 % of control

Compound: COC(=O)C(CCC(=O)OC(C)(C)C)NC(=O)C(NC(=O)OCc1ccccc1)C(C)C (stereo not drawn) (Cbz-Val-Glu(OtBu)-OMe; configuration not given here)
- T/C [5]: 100 % of control
- T/C [16]: 100 % of control
- T/C [17]: 95 % of control

Compound: NC(N)=NCCCC(=O)O
- T/C [18]: 104 % of control
- T/C [19]: 94 % of control and 103 % of control
- T/C [12]: 95 % of control
- T/C (dose: 200.0 mg/kg/injection, schedule: Q01DX009 (ip), vehicle: saline): 101 % of control and 103 % of control
- T/C [13]: 100 % of control
- T/C (dose: 400.0 mg/kg/injection, schedule: Q01DX009 (ip), vehicle: saline): 92 % of control and 106 % of control
- T/C (dose: 400.0 mg/kg/injection, schedule: Q04DX003 (ip), vehicle: saline): 104 % of control

Compound: CC(=O)Nc1ccc(C=Nc2ccc3c(c2)Cc2ccccc2-3)cc1
- T/C [3]: 109 % of control
- T/C [14]: 118 % of control
- T/C [15]: 118 % of control

Compound: CN(C)[C@@H]1C(=O)C(C(=O)NCNCCCC(=O)O)=C(O)[C@@]2(O)C(=O)C3=C(O)c4c(O)cccc4[C@@](C)(O)[C@H]3C[C@@H]12
- T/C [5]: 95 % of control
- T/C [16]: 104 % of control
- T/C [17]: 104 % of control

Compound: C(=C\c1nc2ccccc2[nH]1)/c1nc2ccccc2[nH]1
- T/C [4]: 100 % of control
- T/C [8]: 100 % of control
- T/C [5]: 92 % of control
- T/C [16]: 98 % of control

Compound: C1CN2CCC1C1(C2)SSC2(CN3CCC2CC3)S1 (stereo not given)
- T/C (dose: 6.25 mg/kg/injection, schedule: Q04DX003 (ip), vehicle: saline): 100 % of control
- T/C (dose: 12.5 mg/kg/injection, schedule: Q04DX003 (ip), vehicle: saline): 105 % of control
- T/C (dose: 25.0 mg/kg/injection, schedule: Q04DX003 (ip), vehicle: saline): 100 % of control

Compound: CC[C@@H](c1ccc(O)cc1)[C@@H](CC)c1ccc(O)cc1
- T/C [18]: 90 % of control
- T/C [19]: 109 % of control
- T/C (dose: 100.0 mg/kg/injection, schedule: Q04DX003 (ip), vehicle: alcohol): 94 % of control
- T/C (dose: 200.0 mg/kg/injection, schedule: Q04DX003 (ip), vehicle: alcohol): 100 % of control

Compound: CCN1C=C/C(=C/c2cc3scc(-c4ccccc4)[n+]3c3ccccc23)c2ccccc21
- T/C (dose: 0.08 mg/kg/injection, schedule: Q01DX009 (ip), vehicle: saline): 100 % of control
- T/C (dose: 0.16 mg/kg/injection, schedule: Q01DX009 (ip), vehicle: saline): 108 % of control
- T/C (dose: 0.32 mg/kg/injection, schedule: Q01DX009 (ip), vehicle: saline): 120 % of control
